Results as given in patent publication US11547663B2, “Unit aerosol doses for anticoagulation” (InCarda Therapeutics, Inc., priority 2015, dated 2023).

Experiments:
[1] = Inhaled anticoagulant in heart transplant patient (Example 8); assay type: in vivo, human; conditions: patient undergoing heart transplant
Experimental: Inhaled anticoagulant (e.g. Argatroban) will be administered to a patient undergoing heart transplant to target the heart to reach an anti-coagulated state. In this example, a dose of 0.1 to 150 mg/kg can be sufficient to achieve an anti-coagulated state in 30 minutes.

[2] = tested on: intrinsic pathway; experiment: Activated clotting time (ACT) in dog blood after IV or IT anticoagulant; assay type: in vivo; conditions: for ACT LA: Left Atrium
Experimental: To assess the efficacy of anticoagulants delivered via intratracheal (IT) inhalation, four different anticoagulants were tested in a dog study. PK as well as biomarkers of blood in the Left Atrium (LA) and Coronary Sinus (CS) were monitored. These locations were chosen as these are the sites whereby clot formation occurs that leads to Myocardial Infarction or results in stroke. These drugs and doses were selected to represent a wide spectrum of anticoagulant classes. One anticoagulant was tested in one dog on each arm of this study. Activated clotting time (ACT), measures the time in seconds needed for whole blood to clot upon exposure to an activator of an intrinsic pathway by the addition of such as factor XII activators. Measurements were performed in the blood collected from Left Atrium (LA) and in the Coronary sinus (CS)—the targets for stroke prevention and Myocardial Infarction (MI), respectively.

[3] = tested on: intrinsic system; experiment: Activated Partial Thromboplastin Time (aPTT or PTT) in dog blood after IV or IT anticoagulant; assay type: in vivo; conditions: for PTT CS: Coronary Sinus; for PTT LA: Left Atrium
Experimental: (§1) To assess the efficacy of anticoagulants delivered via intratracheal (IT) inhalation, four different anticoagulants were tested in a dog study.
(§2) PK as well as biomarkers of blood in the Left Atrium (LA) and Coronary Sinus (CS) were monitored. These locations were chosen as these are the sites whereby clot formation occurs that leads to Myocardial Infarction or results in stroke.
(§3) These drugs and doses were selected to represent a wide spectrum of anticoagulant classes. One anticoagulant was tested in one dog on each arm of this study.
(§4) Factor Xa inhibition; Prothrombin Time (PT): measures the integrity of the extrinsic system as well as factors common to both systems; and Activated Partial Thromboplastin Time (aPTT or PTT): measures the integrity of the intrinsic system and the common components and factor-Xa inhibition.
(§5) Measurements were performed in the blood collected from Left Atrium (LA) and in the Coronary sinus (CS)—the targets for stroke prevention and Myocardial Infarction (MI), respectively.

[4] = tested on: extrinsic system; experiment: Prothrombin Time (PT) in dog blood after IV or IT anticoagulant; assay type: in vivo; conditions: for PT CS / PTCS: Coronary Sinus; for PT LA: Left Atrium
Experimental: as §1, §2, §3, §4, §5

[5] = Inhaled anticoagulant in patient undergoing heart valve replacement (Example 6); assay type: in vivo, human
Experimental: Inhaled anticoagulant (e.g. Argatroban) will be administered to a patient undergoing heart valve replacement to target the heart to reach an anti-coagulated state. In this example, a dose of 0.1 to 150 mg/kg can be sufficient to achieve an anti-coagulated state in 30 minutes.

[6] = Inhaled anticoagulant in Myocardial Infarction patient (Example 4); assay type: in vivo, human
Text: Inhaled anticoagulant (e.g. Argatroban) will be administered (e.g., self-administered) to a patient suffering a Myocardial Infarction (MI) early to ensure that the patient is in an anti-coagulated state by the time the patient arrives at the hospital or point of care. This will facilitate further interventions, for which an anti-coagulated state is important.

[7] = IV Argatroban 3 mg, 0 min (baseline)
[8] = T Argatroban 5 mg, 0 min (baseline)

In the case of `CC1CNc2c(cccc2S(=O)(=O)N[C@@H](CCCNC(=N)N)C(=O)N2CC[C@@H](C)C[C@@H]2C(=O)O)C1` (stereo partly shown) [Argatroban], the “return to a normal coagulation state after initiating the administration” value (shortened to “return to a normal coagulation state”) ([1]; inhaled) is reported as 3 h, the “time to achieve an anti-coagulated state” value ([1]; inhaled 0.1 to 150 mg/kg) is reported as 30 min and the “time in which ACT returns to base line” value [2] is reported as 2 h. The “increase of ACT above baseline” value ([2]; IT) was ≤ 3.2 fold, the “time in which IT prolonged the ACT” value ([2]; IT) was 15 to 30 min and the “effect on ACT” value ([2]; IT (inhaled)) was “increased and prolonged ACT”. For the same compound, the “effect on ACT” value ([2]; IV) was “prolonged”, the “ACT LA” value [2, 7] was 101 s and the “ACT LA” value ([2]; IV Argatroban 3 mg, 1 min) was 535 s. For the same compound, the “ACT LA” value ([2]; IV Argatroban 3 mg, 3 min) was 1000 s, the “ACT LA” value ([2]; IV Argatroban 3 mg, 5 min) was 489 s and the “ACT LA” value ([2]; IV Argatroban 3 mg, 10 min) was 326 s. For the same compound, the “ACT LA” value ([2]; IV Argatroban 3 mg, 15 min) was 264 s, the “ACT LA” value ([2]; IV Argatroban 3 mg, 30 min) was 185 s and the “ACT LA” value ([2]; IV Argatroban 3 mg, 60 min) was 140 s. The “ACT LA” value ([2]; IV Argatroban 3 mg, 120 min) was 107 s, the “ACT LA” value [2, 8] was 84 s and the “ACT LA” value ([2]; T Argatroban 5 mg, 1 min) was 89 s. The “ACT LA” value ([2]; T Argatroban 5 mg, 3 min) was 73 s, the “ACT LA” value ([2]; T Argatroban 5 mg, 5 min) was 106 s and the “ACT LA” value ([2]; T Argatroban 5 mg, 10 min) was 135 s. The “ACT LA” value ([2]; T Argatroban 5 mg, 15 min) was 180 s, the “ACT LA” value ([2]; T Argatroban 5 mg, 30 min) was 259 s and the “ACT LA” value ([2]; T Argatroban 5 mg, 60 min) was 180 s. For the same compound, the “ACT LA” value ([2]; T Argatroban 5 mg, 120 min) was 129 s, the “effect on aPTT” value ([3]; IT (inhaled)) was “very marginal spikes” and the “effect on aPTT” value ([3]; IV) was “prolonged”. The “PTT CS” value [3, 7] was 20.9 s, the “PTT CS” value ([3]; IV Argatroban 3 mg, 3 min) was 20 s and the “PTT CS” value ([3]; IV Argatroban 3 mg, 15 min) was 33.8 s. The “PTT CS” value ([3]; IV Argatroban 3 mg, 60 min) was 24.9 s, the “PTT LA” value [3, 7] was 48.2 s and the “PTT LA” value ([3]; IV Argatroban 3 mg, 1 min) was 41.5 s. For the same compound, the “PTT LA” value ([3]; IV Argatroban 3 mg, 3 min) was 29.5 s, the “PTT LA” value ([3]; IV Argatroban 3 mg, 5 min) was 23.4 s and the “PTT LA” value ([3]; IV Argatroban 3 mg, 10 min) was 20.9 s. The “PTT LA” value ([3]; IV Argatroban 3 mg, 15 min) was 25.1 s, the “PTT LA” value ([3]; IV Argatroban 3 mg, 30 min) was 12.2 s and the “PTT LA” value ([3]; IV Argatroban 3 mg, 60 min) was 9.8 s. For the same compound, the “PTT LA” value ([3]; IV Argatroban 3 mg, 120 min) was 49.3 s, the “PTT CS” value [3, 8] was 16.1 s and the “PTT CS” value ([3]; T Argatroban 5 mg, 3 min) was 18.4 s. The “PTT CS” value ([3]; T Argatroban 5 mg, 15 min) was 9.5 s, the “PTT CS” value ([3]; T Argatroban 5 mg, 60 min) was 40.3 s and the “PTT LA” value [3, 8] was 13.3 s. For the same compound, the “PTT LA” value ([3]; T Argatroban 5 mg, 1 min) was 12.5 s, the “PTT LA” value ([3]; T Argatroban 5 mg, 3 min) was 17.7 s and the “PTT LA” value ([3]; T Argatroban 5 mg, 5 min) was 17.2 s. For the same compound, the “PTT LA” value ([3]; T Argatroban 5 mg, 10 min) was 20.1 s, the “PTT LA” value ([3]; T Argatroban 5 mg, 15 min) was 17.8 s and the “PTT LA” value ([3]; T Argatroban 5 mg, 30 min) was 13.2 s. For the same compound, the “PTT LA” value ([3]; T Argatroban 5 mg, 60 min) was 11.1 s, the “PTT LA” value ([3]; T Argatroban 5 mg, 120 min) was 10.4 s and the “effect on PT” value ([4]; IT (inhaled)) was “very marginal spikes”. The “effect on PT” value ([4]; IV) was “prolonged”, the “PT CS” value [4, 7] was 6.5 s and the “PT CS” value ([4]; IV Argatroban 3 mg, 3 min) was 33.7 s. For the same compound, the “PT CS” value ([4]; IV Argatroban 3 mg, 15 min) was 20.2 s, the “PT CS” value ([4]; IV Argatroban 3 mg, 60 min) was 8.6 s and the “PT LA” value [4, 7] was 9.1 s. The “PT LA” value ([4]; IV Argatroban 3 mg, 1 min) was 44.3 s, the “PT LA” value ([4]; IV Argatroban 3 mg, 3 min) was 36.3 s and the “PT LA” value ([4]; IV Argatroban 3 mg, 5 min) was 30.1 s. The “PT LA” value ([4]; IV Argatroban 3 mg, 10 min) was 22 s, the “PT LA” value ([4]; IV Argatroban 3 mg, 15 min) was 18 s and the “PT LA” value ([4]; IV Argatroban 3 mg, 30 min) was 11.5 s. For the same compound, the “PT LA” value ([4]; IV Argatroban 3 mg, 60 min) was 7.9 s, the “PT LA” value ([4]; IV Argatroban 3 mg, 120 min) was 6.7 s and the “PTCS” value [4, 8] was 6.5 s. For the same compound, the “PTCS” value ([4]; T Argatroban 5 mg, 3 min) was 6.8 s, the “PTCS” value ([4]; T Argatroban 5 mg, 15 min) was 8.9 s and the “PTCS” value ([4]; T Argatroban 5 mg, 60 min) was 8.6 s. The “PT LA” value [4, 8] was 6.3 s, the “PT LA” value ([4]; T Argatroban 5 mg, 1 min) was 6.7 s and the “PT LA” value ([4]; T Argatroban 5 mg, 3 min) was 7 s. For the same compound, the “PT LA” value ([4]; T Argatroban 5 mg, 5 min) was 7.2 s, the “PT LA” value ([4]; T Argatroban 5 mg, 10 min) was 8.6 s and the “PT LA” value ([4]; T Argatroban 5 mg, 15 min) was 10.4 s. For the same compound, the “PT LA” value ([4]; T Argatroban 5 mg, 30 min) was 12 s, the “PT LA” value ([4]; T Argatroban 5 mg, 60 min) was 8.1 s and the “PT LA” value ([4]; T Argatroban 5 mg, 120 min) was 7.3 s. The “return to a normal coagulation state” value ([5]; inhaled) was 3 h, the “time to achieve an anti-coagulated state” value ([5]; inhaled 0.1 to 150 mg/kg) was 30 min and the “time to achieve an anti-coagulated state” value ([6]; patient suffering Myocardial Infarction, inhaled 0.1 to 150 mg/kg) was 30 min. The “return to a normal coagulation state” value ([6]; patient suspected of Myocardial Infarction, inhaled) was 3 h.
